Laboratory results from article PMC5861220, “The Cytochrome P450-Mediated Metabolism Alternation of Four Effective Lignans From Schisandra chinensis in Carbon Tetrachloride-Intoxicated Rats and Patients With Advanced Hepatocellular Carcinoma” (Frontiers in Pharmacology, 2018).

Legend:
Format in all cases: in vitro ADME
CYP3A = assay: Lignan metabolism in rat liver microsomes with ketoconazole; conditions: 5 μM, + Ketoconazole 100 μM (CYP3A)
Method: (§1) The CYP450s involved in the metabolism of schisandrin, schisantherin A, deoxyshisandrin and γ-schisandrin in rat or human liver microsomes were confirmed by comparison of the metabolism ratio before and after the addition of selective inhibitors to CYP450 isozymes. […] The supernate was injected to HPLC-MS for analysis of the four lignans.

CYP1A2 = biological target: T1, CYP1A2 (Rattus norvegicus, UniProt P04799); assay: Lignan metabolism in rat liver microsomes with furafylline; conditions: 5 μM, + Furafylline 50 μM (CYP1A2)
T1 sequence (P04799 1-513): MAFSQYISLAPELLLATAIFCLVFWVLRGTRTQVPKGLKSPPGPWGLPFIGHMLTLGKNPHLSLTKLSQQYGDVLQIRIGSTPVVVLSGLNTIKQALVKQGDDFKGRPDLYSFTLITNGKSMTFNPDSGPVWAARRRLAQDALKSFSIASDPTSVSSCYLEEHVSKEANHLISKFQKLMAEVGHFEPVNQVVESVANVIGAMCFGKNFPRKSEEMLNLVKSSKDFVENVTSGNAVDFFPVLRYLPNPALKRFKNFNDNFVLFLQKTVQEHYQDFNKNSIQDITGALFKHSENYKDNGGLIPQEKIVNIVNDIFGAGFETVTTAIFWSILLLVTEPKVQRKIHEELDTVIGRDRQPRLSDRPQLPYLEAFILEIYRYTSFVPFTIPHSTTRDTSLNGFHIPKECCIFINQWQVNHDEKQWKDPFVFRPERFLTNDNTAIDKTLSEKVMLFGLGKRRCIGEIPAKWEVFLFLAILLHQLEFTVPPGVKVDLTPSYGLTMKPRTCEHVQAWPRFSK
Method: as §1

P-glycoprotein (P-gp) = assay: P-gp substrate assessment from Caco-2 transport (Papp and ER); conditions: Caco-2 cell monolayer, 5, 10 and 50 μM
Method: Caco-2 cell (passage 38) was used in the transport experiments. Cells were seeded on polycarbonate filters (12 mm diameter, pore size […]) at 1 × 10^5/cm^2. The cell monolayer was formed 21 days post seeding when the transepithelial electrical resistance (TEER) was above 1,000 Ω• cm^2. Three concentration levels (5, 10, and 50 μM) were set for the four schisandra lignans in the study. After preincubation for 1 h at 37°C, the solution of the four lignans was respectively added to the apical (0.4 mL) or basolateral (0.6 mL) chamber for absorptive (AP → BL) and secretive (BL → AP) permeability test. At the specified timepoints (0.5, 1, 1.5 and 2 h), 50 μL samples (n = 3) were withdrawn from receiver chamber, and meanwhile, 50 μL fresh buffer was added. The four lignans were determined by HPLC-MS method.
The apparent permeability coefficient (Papp) in the Caco-2 cell was calculated by the formula Papp = (ΔQ/Δt)/AC0, where ΔQ/Δt is the transport rate (nmol/s), which remained approximately constant in time, A is the well membrane area (0.6 cm^2), and C0 is the initial concentration of the four lignans (μM). The efflux rate (ER) was calculated by the formula ER = Papp (BL → AP)/Papp(AP → BL).

Question: `COc1cc2c(c(OC)c1OC)-c1c(cc(OC)c(OC)c1OC)C[C@H](C)[C@@H](C)C2` [Deoxyshisandrin, deoxyshisandrin] was tested. Which Metabolism rate (CYP3A) did it give?
Answer: Its Metabolism rate is 20.0 ± 1.6 nmol/min/mg.

Question: And the Metabolism rate (CYP1A2)?
Answer: The Metabolism rate was 85.2 ± 7.6 nmol/min/mg.

Question: And the “P-glycoprotein (P-gp) substrate classification according to Papp and ER” value (P-glycoprotein (P-gp))?
Answer: The value was “some efflux trend”.

Question: `COc1cc2c(c(OC)c1OC)-c1c(cc(OC)c(OC)c1OC)C[C@](C)(O)[C@@H](C)C2` [Schisandrin, schisandrin] was tested. Which Metabolism rate (CYP3A) did it give?
Answer: Its Metabolism rate is 172.9 ± 8.6 nmol/min/mg.

Question: What about the Metabolism rate (CYP1A2) of the same molecule?
Answer: Its Metabolism rate is 215.1 ± 26.5 nmol/min/mg.
